Experimental data as given in patent publication US8071654B2, “Inhibitors of thromboxane formation and action” (priority 2000, dated 2011).

Tests used:
[1] = target: T1, platelet TP receptor (Homo sapiens, UniProt P21731); assay: binding of 125I-BOP to platelets
T1 construct: endogenous in cells; host or cells: washed human platelets
T1 sequence (P21731 1-343): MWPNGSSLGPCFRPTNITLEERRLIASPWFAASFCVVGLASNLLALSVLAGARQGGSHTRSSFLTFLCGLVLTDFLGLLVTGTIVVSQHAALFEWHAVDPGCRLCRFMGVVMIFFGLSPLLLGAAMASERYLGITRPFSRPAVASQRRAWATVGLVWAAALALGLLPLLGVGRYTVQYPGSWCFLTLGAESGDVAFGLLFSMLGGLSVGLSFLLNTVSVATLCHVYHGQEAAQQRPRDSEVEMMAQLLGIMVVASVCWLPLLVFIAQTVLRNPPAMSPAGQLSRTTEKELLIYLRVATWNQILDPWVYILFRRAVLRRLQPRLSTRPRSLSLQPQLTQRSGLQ
Description: Washed platelets were prepared as described above, except that the platelet suspension was made up at a concentration of 10×10^6 cells/0.5 ml. The binding assay involved the addition of radioligand (30,000 cpm ^125I-BOP) to all tubes in triplicate, and either various doses of unlabeled I-BOP (10^−9-10^−7 M), PBT-3 (10^−9-10^−7 M) or U46619 (10^−9-10^−7 M) in 1 μl ethanol. Additional tubes containing excess unlabeled I-BOP were included to assess the extent of non-specific binding.

[2] = target: T2, TP receptor (Homo sapiens, UniProt P21731); assay: platelet aggregation evoked by the TxA2 mimic U46619; format: cell-based
T2 construct: endogenous in cells; host or cells: washed human platelets
T2 sequence (P21731 1-343): T1 sequence (P21731 1-343)
Description: Venous blood was obtained from healthy human subjects who had not taken NSAID's for at least two weeks. Blood was drawn into plastic syringes containing ACD. It was immediately centrifuged at 23° at 200×g for 15 min. The platelet rich plasma was transferred into fresh plastic tubes and centrifuged at 400×g for 5 min. The supernatant was discarded and the platelet sediment was resuspended in fresh medium containing NaCl (137 mM), KCl (1 mM), NaH2PO4, glucose (5.5 mM), HEPES (20 mM) and CaCl2 (1 mM) and allowed to stand at room temperature for 30 min. A platelet count was made, which determined the volume of platelet suspension needed to make up 350×10^6 cells for each measurement. The aliquot was diluted with medium to make 0.5 ml/assay/cuvette. Appropriate calibration of the aggregometer (PAP-4C) for 0% and 100% transmission was carried out through the use of a sample of platelet suspension and cell-free medium (37).
0.5 ml of platelet suspension was added to siliconized glass tubes (four at a time) and heated with magnetic stirring to 37° for 1 min in a platelet aggregometer (PAP-4C). Either vehicle alone (ethanol, 1 μl) or hepoxilin analog was then added, followed two min later by agonist (collagen: 2 μg; PGH2: 100 ng/0.5 ml; U46619: 10 ng/0.5 ml or I-BOP: 2 ng/0.5 ml). The response was recorded for the next 5 min. In experiments where analysis of TxB2 and HHT were to be made by HPLC, the platelet suspension at the end of the experiment was diluted with ethyl acetate, 100 ng of prostaglandin B1 was added as internal standard, and the mixture was acidified to pH 3 with 0.1 N HCl. After centrifugation, the organic layer was separated, washed twice with water to neutrality, and evaporated to dryness. Half of the sample was taken and was resuspended in 1 ml ethyl acetate containing 20 μg ADAM reagent, and was left in the dark for 2 h (38). The solvent was then evaporated and the residue was acetylated with a solution of pyridine/acetic anhydride (3/1, v/v) during 16 h at 23°. The reagents were evaporated to dryness and the residue was resuspended in acetonitrile/water for HPLC analysis. In experiments where the conversion of tritiated PGH2 was to be monitored, the procedure described above was repeated with tritiated PGH2 instead of unlabeled PGH2. After extraction of the sample as described above, the radiolabeled compounds were analyzed by TLC. Dose response curves for varying amounts of test compounds were generated and the data expressed as % inhibition of collagen-induced platelet aggregation. Each point was investigated 5 times and statistical analysis of the data was carried out using Macintosh Statview statistical software.

[3] = target: T3, COX-2 (Homo sapiens, UniProt P35354); assay: COX-2 activity, 14C-arachidonic acid conversion, TLC; format: biochemical; conditions: for COX-2 enzyme activity (% of control values, mean ± SD): n = 3
T3 construct: purchased Cayman Chemicals
T3 sequence (P35354 18-604): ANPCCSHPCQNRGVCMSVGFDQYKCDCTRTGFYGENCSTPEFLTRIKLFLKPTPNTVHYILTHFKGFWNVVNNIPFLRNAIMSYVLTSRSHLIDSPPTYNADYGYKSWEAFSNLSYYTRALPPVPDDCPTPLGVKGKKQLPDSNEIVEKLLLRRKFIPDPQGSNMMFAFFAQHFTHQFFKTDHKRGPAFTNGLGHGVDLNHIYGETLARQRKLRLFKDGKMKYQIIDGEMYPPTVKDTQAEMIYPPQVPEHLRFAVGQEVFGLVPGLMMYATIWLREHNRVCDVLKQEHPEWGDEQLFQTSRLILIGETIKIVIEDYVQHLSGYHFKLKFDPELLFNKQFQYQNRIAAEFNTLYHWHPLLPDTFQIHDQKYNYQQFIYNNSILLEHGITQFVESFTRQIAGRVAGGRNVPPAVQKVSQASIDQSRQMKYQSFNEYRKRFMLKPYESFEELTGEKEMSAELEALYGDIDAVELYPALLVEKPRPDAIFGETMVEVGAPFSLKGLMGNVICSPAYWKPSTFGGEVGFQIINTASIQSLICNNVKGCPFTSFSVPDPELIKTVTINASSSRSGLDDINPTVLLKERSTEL
Description: COX-1 and COX-2 enzyme preparations were purchased from Cayman Chemicals. Preliminary studies established that 40 U of COX-1 or COX-2 could convert about 70% of ^14C-arachidonic acid (spec. act. 55 mCi/mmol, Ontario Isotopes, Ontario, Canada; 100,000 cpm were diluted with 0.5 μg unlabeled arachidonic acid (Cayman Chemicals)/1 ml assay) into products in vitro. Different amounts of PBT-3 (10 μg and 20 μg) were added and the conversion of AA into products was assessed during a 10 min reaction in 1 ml phosphate buffer at 37°. After extraction, products were assessed by TLC (silica gel G, ethyl acetate/acetic acid, 99/1, v/v). After development, the TLC plates were scanned for radioactive products with a Berthold TLC radiochromatogram scanner and the radioactivity was quantified by scraping zones of silica gel, placing in scintillation vials, elution with 1 ml methanol and addition of scintillation medium. Radioactivity was determined by conventional counting in a beta scintillation counter.

SMILES: CCCCC/C=C\CC1CC1[C@@H](O)/C=C\C/C=C\CCCC(=O)OC (stereo partly drawn) [PBT-3, 10(S)-hydroxy-11,12-cyclopropyl-eicosa-5Z,8Z,14Z-trienoic acid methyl ester]
- fold less active than I-BOP in competing with 125I-BOP binding [1]: about 16 fold
- IC50 ([1]; 10×10^6 cells/0.5 ml, read-out: IC50 for competition with 125I-BOP binding to platelets): 8.1 nM
- effect on U46619-induced aggregation in aspirin-treated platelets ([2]; PBT-3 added after aspirin, before U46619): blockade of the aggregation
- IC50 ([2]; U46619 10 ng/0.5 ml, read-out: IC50 for inhibition of aggregation evoked by U46619): 700 nM
- inhibition of aggregation evoked by U46619 ([2]; dose of 1 μg): inhibited the aggregation
- COX-2 enzyme activity (% of control values, mean ± SD) ([3]; PBT-3 3.00 μM): 109.2 ± 8.0^NS % of control
- COX-2 enzyme activity (% of control values, mean ± SD) ([3]; PBT-3 30.0 μM): 107.1 ± 14^NS % of control
- inhibition of COX-2, in words ([3]; relatively large amounts of PBT-3, about 3-4 log doses greater than required to inhibit the TP receptor): Neither COX-1, COX-2,12-LOX nor Plase A2 was inhibited
